Results from ChEMBL document CHEMBL1201862, “PubChem BioAssay data set” (2004).
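These data come from cells grown in 96-well plates and exposed to compound for 48 hours at five concentrations. GI50: concentration for 50% inhibition of growth.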 Activity calls are given as the source filed them. Cut-off read from the data, not from the text of the source: active = GI50 up to about 1.1 µM and inactive = higher.

How the values were obtained:
Assay in all cases: NCI anticancer screen, dose series, 48 h
[1] = system: NCI-H226
[2] = system: SW-620
[3] = system: SNB-19
[4] = system: T47D
[5] = system: BT-549
[6] = system: SK-OV-3
[7] = system: OVCAR-4
[8] = system: OVCAR-8
[9] = system: Hs-578T
[10] = system: EKVX
[11] = system: PC-3
[12] = system: A498
[13] = system: 786-0
[14] = system: NCI-H522
[15] = system: CCRF-CEM
[16] = system: HCT-116
[17] = system: RXF 393
[18] = system: MDA-MB-231
[19] = system: SN12C
[20] = system: U-251
[21] = system: IGROV-1
[22] = system: SK-MEL-2
[23] = system: CAKI-1
[24] = system: SF-268
[25] = system: HCT-15
[26] = system: UACC-257
[27] = system: MDA-MB-435
[28] = system: LOX IMVI
[29] = system: ACHN
[30] = system: UACC-62
[31] = system: OVCAR-5
[32] = system: SF-539
[33] = system: A549
[34] = system: HL-60
[35] = system: NCI/ADR-RES
[36] = system: M14
[37] = system: MCF7
[38] = system: HCC 2998
[39] = system: KM12
[40] = system: MOLT-4
[41] = system: COLO 205
[42] = system: SK-MEL-5
[43] = system: NCI-H460
[44] = system: DU-145
[45] = system: OVCAR-3
[46] = system: SK-MEL-28
[47] = system: K562
[48] = system: UO-31
[49] = system: HT-29
[50] = system: NCI-H23
[51] = system: HOP-92
[52] = system: HOP-62
[53] = system: SF-295
[54] = system: TK-10

## CC1=NN(C2=NS(=O)(=O)c3ccccc3N2C)C(=O)C1
[1]
  GI50: > 100 µM (inactive)
[2]
  GI50: > 100 µM (inactive)
[3]
  GI50: > 100 µM (inactive)
[4]
  GI50: > 100 µM (inactive)
[5]
  GI50: > 100 µM (inactive)
[6]
  GI50: > 100 µM (inactive)
[7]
  GI50: > 100 µM (inactive)
[8]
  GI50: > 100 µM (inactive)
[9]
  GI50: > 100 µM (inactive)
[10]
  GI50: > 100 µM (inactive)
[11]
  GI50: > 100 µM (inactive)
[12]
  GI50: 50.8 µM (inactive)
[13]
  GI50: > 100 µM (inactive)
[14]
  GI50: > 100 µM (inactive)
[15]
  GI50: > 100 µM (inactive)
[16]
  GI50: > 100 µM (inactive)
[17]
  GI50: > 100 µM (inactive)
[18]
  GI50: > 100 µM (inactive)
[19]
  GI50: > 100 µM (inactive)
[20]
  GI50: > 100 µM (inactive)
[21]
  GI50: > 100 µM (inactive)
[22]
  GI50: > 100 µM (inactive)
[23]
  GI50: > 100 µM (inactive)
[24]
  GI50: > 100 µM (inactive)
[25]
  GI50: > 100 µM
[26]
  GI50: > 100 µM (inactive)
[27]
  GI50: > 100 µM (inactive)
[28]
  GI50: > 100 µM (inactive)
[29]
  GI50: > 100 µM (inactive)
[30]
  GI50: > 100 µM (inactive)
[31]
  GI50: > 100 µM (inactive)
[32]
  GI50: > 100 µM (inactive)
[33]
  GI50: > 100 µM (inactive)
[34]
  GI50: > 100 µM (inactive)
[35]
  GI50: > 100 µM (inactive)
[36]
  GI50: > 100 µM (inactive)
[37]
  GI50: > 100 µM (inactive)
[38]
  GI50: > 100 µM (inactive)
[39]
  GI50: > 100 µM (inactive)
[40]
  GI50: > 100 µM (inactive)
[41]
  GI50: > 100 µM (inactive)
[42]
  GI50: > 100 µM (inactive)
[43]
  GI50: > 100 µM (inactive)
[44]
  GI50: > 100 µM (inactive)
[45]
  GI50: > 100 µM (inactive)
[46]
  GI50: > 100 µM (inactive)
[47]
  GI50: > 100 µM (inactive)
[48]
  GI50: > 100 µM (inactive)
[49]
  GI50: > 100 µM (inactive)
[50]
  GI50: > 100 µM (inactive)
[51]
  GI50: > 100 µM (inactive)
[52]
  GI50: > 100 µM (inactive)
[53]
  GI50: > 100 µM (inactive)
[54]
  GI50: > 100 µM (inactive)
